Measurements taken from patent publication US20170055524A1, “Aqueous Adjuvant Composition For Increasing The Efficacy Of Electrolyte Active Substances” (priority 2014, published 2017).

How the values were obtained:
apple leaf cuticles [1] = assay: Membrane penetration test, penetration of sulcotrione; format: in vitro ADME; details: sulcotrione alone, 0.2 g/L ai; 20° C./60% rel. air humidity
Description: (§1) The potential of the C8/10 glucamide, which is independent of the surfactant action, to promote foliar absorption of active agrochemical ingredients was determined in membrane penetration tests with apple or pear leaf cuticles. […] The stomata-free cuticles were first dried under air and then installed into stainless steel diffusion cells. After application to the original upper side of the leaf and evaporation of the test liquid, i.e. of the aqueous preparations of the active ingredients without or with the C8/10-glucamide-containing spray liquids or comparative compositions, the diffusion cells were transferred into thermostatted blocks and charged with aqueous liquid. The water used to make up the aqueous test liquids was local tap water (of known composition). At regular intervals, samples were taken and, irrespective of the test system, the proportion of active ingredient penetrated was determined either by HPLC or scintillation measurement. […] In all other HPLC variants, only an aliquot was taken. During the experiment, the temperature in the system (block, diffusion cells, liquids, etc.) and the air humidity above the spray coating on the cuticle were known exactly and were monitored. […] The analytical determination was effected either by means of HPLC (1290 Infinity, Agilent) or analysis of radioactivity (Tricarb, Perkin Elmer). […]

apple leaf cuticles [2] = assay: Membrane penetration test, penetration of dicamba (acid); details: dicamba (acid) alone, 1.0 g/L ai; normal tap water (85 ppm Ca); 20° C./60% rel. air humidity
Excerpt: The stomata-free cuticles were first dried under air and then installed into stainless steel diffusion cells. […] The water used to make up the aqueous test liquids was local tap water (of known composition). […] In each case, the geometric mean values of the penetration for intact membranes at the mean measurement times are given.

apple leaf cuticles [3] = assay: Membrane penetration test, penetration of MCPA (potassium salt); format: in vitro ADME; details: MCPA potassium alone, 1.0 g/L ai in spray liquid; 25° C./56% rel. air humidity
Description: as §1

apple leaf cuticles [4] = assay: Membrane penetration test, penetration of 2,4-D DMA with antagonistic calcium; format: in vitro ADME; details: 2,4-D DMA alone, 5 g/L ai; 177 ppm Ca; 25° C./56% rel. air humidity
Description: as §1

SMILES: CS(=O)(=O)c1ccc(C(=O)C2C(=O)CCCC2=O)c(Cl)c1 [Sulcotrione, sulcotrione]
- Mean penetration of sulcotrione after 5 h (apple leaf cuticles [1]): <1%
- Mean penetration of sulcotrione after 1 day (apple leaf cuticles [1]): <1%

SMILES: COc1c(Cl)ccc(Cl)c1C(=O)O [Dicamba (acid), dicamba]
- Mean penetration of dicamba (acid) after 5 h (apple leaf cuticles [2]): 4.4%
- Mean penetration of dicamba (acid) after 1 day (apple leaf cuticles [2]): 12.4%

SMILES: Cc1cc(Cl)ccc1OCC(=O)[O-].[K+] [MCPA potassium, MCPA]
- Mean penetration of MCPA (potassium salt) after 4 h (apple leaf cuticles [3]): 1.6%
- Mean penetration of MCPA (potassium salt) after 1 day (apple leaf cuticles [3]): 7.2%

SMILES: CNC.O=C(O)COc1ccc(Cl)cc1Cl [2,4-D DMA, 2,4-D]
- Mean penetration of 2,4-D DMA after 4 h (apple leaf cuticles [4]): 0.2%
- Mean penetration of 2,4-D DMA after 1 day (apple leaf cuticles [4]): 0.3%
